Reference: patent US11958830B2, “Protease inhibitors, preparation, and uses thereof” (WESTLAKE PHARMACEUTICALS (HANGZHOU) CO., LTD., priority 2021, dated 2024)

Columns and labels:
SARS-CoV-2 3CLpro = target: T1, SARS-CoV-2 3CLpro (Severe acute respiratory syndrome coronavirus 2, UniProt P0DTD1); assay: FRET-based continuous kinetic enzymatic assay of 3CLpro; type: biochemical; settings: 100 nM 3CLpro, 100 μM fluorogenic substrate, 1 hour pre-incubation, 30° C.; read-out: IC50 against SARS-CoV-2 3CLpro
T1 construct: made in house; host or cells: E. coli

SARS-CoV-2 = assay: microbe, parasite or virus in culture; type: cell-based; settings: Severe acute respiratory syndrome coronavirus 2, A549, read-out: IC50, anti-SARS-CoV-2 activity in A549 cells

| Structure (SMILES) | IC50 (SARS-CoV-2 3CLpro) [nM] | IC50 (SARS-CoV-2) [nM] |
| --- | --- | --- |
| CNC(=O)[C@@H](Cc1cccc(F)c1)NC(=O)C1CN(C(=O)c2cncc3cccc(O)c23)CCN1Cc1ccc(Cl)cc1Cl (stereo partly shown) [Compound 1] | 165 | 848 |
| CNC(=O)c1cc(Br)cc([N+](=O)[O-])c1N1CC[C@@]2(CN(C(=O)c3cncc4cc(O)ccc34)C[C@@H]2c2ccccc2)C1 [Compound 8] | 49.5 | 38.8 |
